This passage reports melting point results from a melting point compilation (Tetko et al.; mined from patent text by program, amines drawn as free bases though some values may be those of a salt).

Structures are written as SMILES.

On to `C=C(C)COc1ccc2c(=O)c(C)c(-c3ccccc3)oc2c1C(=O)C=Cc1cc(OC)c(OC)c(OC)c1`, for which the melting point (as a rule, the temperature of the solid-liquid transition) is 82 to 84 °C.

`O=C(O)C1CCCN(CCC#Cc2ccccc2)C1` (stereo unspecified) yielded a melting point of 150 to 151 °C.

With `CCCCCCCC(=O)c1[nH]c(=O)[nH]c1C`, the melting point lay within 220 to 221 °C.

The molecule `CC(C)(CCCCCCCCCCCC(C)(C)C(=O)O)C(=O)O` returned a melting point of 95 to 96 °C.

`Clc1cnc(Oc2cccc(Oc3ncc(Cl)cn3)c2)nc1`: the melting point stood at 120 °C.

In turn, `CC(C)CCOc1c(-c2ccc(S(N)(=O)=O)cc2)cnn(-c2ccc(F)c(F)c2)c1=O` showed a melting point of 149 to 151 °C.

In the case of `Cc1c(C#N)c(N)n(-c2ccc([N+](=O)[O-])cc2)c1C`, the melting point turned out to be 310 °C.

Consider `CCOC(=O)N=C(OCC)c1ccccc1Cl`, for which the melting point was in the range of 65 to 66 °C.

In the case of `O=C(NCc1ccc(Cl)cc1)c1cn(CCCN2CCCCC2)c2ccc(C#CCO)cc2c1=O`, the melting point lay within 160 to 163 °C.

Molecule `CCOC(=NC(=O)c1ccncc1)N1Cc2ccccc2-c2ccccc2C1` registered a melting point of 120 to 122 °C.

`CCN(c1nc(F)ccc1[N+](=O)[O-])C1CCN(Cc2ccccc2)CC1`: the melting point was in the range of 99 to 100 °C.

On to `COc1ccc(S(=O)(=O)C2(C(=O)NO)CCN(Cc3ccc(OCCN4CCCCC4)cc3)CC2)cc1`, for which the melting point stood at 114 °C.

For `Nc1cc(Cl)c([N+](=O)[O-])cc1CCO`, the melting point was 176 °C.

`Nc1cccc(-c2ccc(CCN3CCN(C(=O)NC4CCCCC4)CC3)cc2)n1` showed a melting point of 180 to 182 °C.

Take `N#CCCNC(=O)c1n[nH]cc1NC(=O)c1cc2ccccc2o1`: the melting point fell in the range of 231 to 233 °C.

For `C#CCC1CCC(=O)C(C(=O)c2ccc(S(C)(=O)=O)cc2[N+](=O)[O-])C1=O` (stereo unspecified), the melting point is 65 to 70 °C.

The molecule `O=c1c(Cc2cccnc2)cc2cccnc2n1-c1cccc([N+](=O)[O-])c1` gave a melting point of 226 to 227 °C.

Take `CC(=O)c1sc(=O)[nH]c1C`: the melting point was 208 to 211 °C.

Molecule `CCCN(CCC)[C@H]1Cc2c[nH]c3ccc(-c4nc(-c5ccccc5)no4)c(c23)C1` came in with a melting point of 154 to 155 °C.

`O=C(O)CCc1ccnc(-c2nc(=O)c3ccc(Br)cc3s2)c1` came in with a melting point of 258 to 259 °C.

As for `CNC(=O)c1ccsc1Nc1nc(Nc2ccc3c(c2)CCN(CCOC)CC3)ncc1Cl`, the melting point lay within 217 to 221 °C.

Consider `CC(CNC(=O)c1ccc(-c2ccc(Cl)cc2)cc1F)c1ccc(CN2CCCC2)cc1` (stereo unspecified), for which the melting point is 119 to 121 °C.

In the case of `Fc1ccc(C(c2ccc(F)cc2)c2cc(Cl)cc(Cl)c2S)cc1`, the melting point was 95 °C.

`c1ccc2c(c1)Nc1ccccc1-n1ccnc1-2` yielded a melting point of 215 to 217 °C.

`CC(C)OC(=O)c1ccc(=O)n(CCNC(=O)c2cccnc2)c1` came in with a melting point of 160 to 161 °C.

The molecule `CN(C)S(=O)(=O)c1cc(-c2csc(=Nc3ccccc3)n2C2CC2)ccc1Cl` came in with a melting point of 156 to 159 °C.

The molecule `COc1cn(-c2ccc(N3CCC3=O)cc2F)nc(-c2ccnn2-c2ccccc2)c1=O` had a melting point of 189 to 194 °C.

Take `COc1ccc(-c2cc3cc(OC)cc(C(O)C(F)(F)F)c3o2)cc1` (stereo unspecified): the melting point fell in the range of 120 to 122 °C.

The molecule `COC(=O)C1(NC(=O)Cc2cc(-c3ccc(Cl)cc3)ccc2Cl)CCC(C)(C)CC1` displayed a melting point of 128 °C.

In turn, `CCOC(=O)C1CCN(S(=O)(=O)c2ccc(Br)cc2)CC1` returned a melting point of 132 to 133 °C.

Take `Cc1ccc(C(=O)C2=C(O)C(=O)N(c3ccc(C)nn3)C2c2ccc(C(F)(F)F)cc2)cc1` (stereo unspecified): the melting point turned out to be 278 °C.

For `COc1cc(C(=O)c2c(C)c(OC)c3ccc(C(=O)O)cn23)ccc1[N+](=O)[O-]`, the melting point stood at 287 °C.

`Cc1c(NC(=O)C(CSC(=O)C2CCCCC2)Cc2ccccc2)cccc1C(=O)O` (stereo unspecified) registered a melting point of 117 to 120 °C.

The molecule `COc1nc(Br)c(C)nc1NS(=O)(=O)c1cccc(Cl)c1Cl` showed a melting point of 146 to 148 °C.

Molecule `O=C(O)c1ccc2c(-c3ccccc3)coc2c1` yielded a melting point of 160 to 170 °C.

As to `Clc1ccc(C2CCc3ccccc3O2)cc1` (stereo unspecified), the melting point lay within 76 to 77 °C.

`O=C1c2ccccc2C(=O)N1OCc1c[nH]cn1` returned a melting point of 163 to 165 °C.

For the molecule `O=C(c1ccc(Cl)cc1)c1ccc2c(c1)Cc1ccccc1-2`, the melting point was 183 °C.

Molecule `CCC(=O)NCCC1CCc2ccc3nc(C)oc3c21` (stereo unspecified) had a melting point of 111 to 113 °C.

Molecule `CN1CC(CN2C(=O)c3ccccc3C2=O)CC2c3cc(C(C)(C)C)cc4[nH]cc(c34)CC21` (stereo unspecified) had a melting point of 132 to 137 °C.

On to `Cc1ccc(N2CN(c3ccccc3)c3[nH]ncc3C2=O)cc1`, for which the melting point is 260 to 262 °C.

In turn, `CCCCc1cc(CCCC)n2ncc(Br)c2n1` had a melting point of 47 to 48 °C.

Take `COC(=O)[C@@H](CCSC)NC(=O)C[C@H]1O[C@H](c2cccc(OC)c2OC)c2cc(Cl)ccc2N(CC(C)(C)CO)C1=O`: the melting point fell in the range of 142 to 143 °C.

Take `COc1cc2c(N3CCN(Cc4ccccc4)CC3)nc(-c3ccc(Cl)cc3)nc2c(OC)c1OC`: the melting point is 150 °C.

In turn, `O=C(O)CSCCCCCCn1nc(-c2ccccc2)c(-c2ccccc2)c1-c1ccccc1` displayed a melting point of 92 to 97 °C.

`CN(c1ccc2ccccc2c1)S(=O)(=O)C(Cc1ccccc1)C(=O)NC(Cc1ccc(C#N)cc1)C(=O)N1CCCC1` (stereo unspecified) showed a melting point of 186 °C.

In the case of `CCc1cccc(C(O)c2nc(OC)cc(OC)n2)c1N` (stereo unspecified), the melting point lay within 85 to 86 °C.

With `CC(=O)N1CCN(c2cccc(-n3cnc4cc(C(C)O)ccc43)c2)CC1` (stereo unspecified), the melting point was 126 °C.

`CCOC(=O)c1cnc2c(c(C)nn2-c2ccccc2)c1N(Cc1cccnc1)S(=O)(=O)c1ccc(OC)cc1` had a melting point of 148 to 150 °C.

`O=C(CC(O)(c1cc(Cl)cc(Cl)c1)C(F)(F)F)c1ccc(F)c(Br)c1` (stereo unspecified): the melting point is 134 to 135 °C.

Molecule `O=C(O)Cc1ccc2c(c1)C(=O)c1cc(Cl)ccc1CO2` returned a melting point of 169 to 171 °C.

`C#CCN(C)Cc1ccc([N+](=O)[O-])cc1` displayed a melting point of 47 to 49 °C.

`COCCN1CCC(c2nc3cc(-c4ccc(-n5cnnn5)cc4F)ccc3o2)CC1` came in with a melting point of 148 to 152 °C.

The molecule `COCCCn1nnnc1-c1cc(-c2cc(C(C)C)ccc2OC)c(O)cc1O` gave a melting point of 174 to 176 °C.

With `COC(=O)c1cc(NC(=O)C2CCCCC2)c2cc(Cc3ccc(F)cc3)cnc2c1O`, the melting point lay in the range of 250 to 251 °C.

Molecule `CC(=O)c1ccc(C(C)(c2ccc(C(C)=O)cc2)c2ccc(C(C)=O)cc2)cc1` gave a melting point of 232 °C.

`CCc1ncnc(NC(CO)CO)c1Cl` gave a melting point of 104 to 105 °C.

`CN1CCC2(C)c3cc(O)cc(Cl)c3N(C)C12` (stereo unspecified) displayed a melting point of 152 to 154 °C.

Turning to `CCCCN(Cc1ccc(-c2ccccc2-c2nnn[nH]2)cc1)c1nnn(CC(C)C)c1C(=O)O`, the melting point was 105 to 106 °C.

`O=S1(=O)c2ccccc2NC(=S)c2ccc(C(F)(F)F)cc21` showed a melting point of 275 to 278 °C.

`COc1ccc(C=Cc2cc(Cl)c(OC)c(OC)c2)cc1O` showed a melting point of 105 to 106 °C.
